Assays:
aromatase = molecular target: T1, aromatase (Rattus norvegicus, UniProt P22443); assay: Aromatase inhibition in the rat ovarian microsome assay; type: biochemical; conditions: rat ovarian microsomes; substrate (androstenedione) concentration 0.1 μM
T1 construct: ovarian microsomes are obtained from rats treated with pregnant mares serum gonadotropin; from tissue; host or cells: ovarian microsomes from rats treated with pregnant mares serum gonadotropin
T1 sequence (P22443 1-508): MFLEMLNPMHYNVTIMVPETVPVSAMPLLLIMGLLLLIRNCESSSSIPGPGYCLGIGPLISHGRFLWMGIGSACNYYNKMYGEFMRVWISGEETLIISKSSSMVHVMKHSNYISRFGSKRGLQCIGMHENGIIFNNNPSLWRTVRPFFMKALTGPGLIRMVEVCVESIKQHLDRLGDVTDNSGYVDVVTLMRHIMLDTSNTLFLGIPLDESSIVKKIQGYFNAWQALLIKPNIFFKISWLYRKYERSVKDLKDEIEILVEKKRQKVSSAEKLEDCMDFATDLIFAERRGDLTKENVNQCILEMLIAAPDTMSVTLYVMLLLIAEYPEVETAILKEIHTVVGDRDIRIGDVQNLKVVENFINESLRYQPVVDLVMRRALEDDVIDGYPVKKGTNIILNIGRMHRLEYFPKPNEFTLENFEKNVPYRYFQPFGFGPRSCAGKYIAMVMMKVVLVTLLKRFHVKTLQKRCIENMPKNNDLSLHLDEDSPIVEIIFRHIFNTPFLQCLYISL
Method: In this test system, ovarian microsomes are obtained from rats treated with pregnant mares serum gonadotropin. Test compounds are added to reaction vials containing 0.1 μM 4-androstene-3,17-dione, 100,000 dpm 1,2[^3 H]-androstenedione, the microsomes and a NADPH generating system. The concentrations of the inhibitors tested ranged between 0.005 and 10 μM.

[1] = tested on: DMBA-induced mammary tumors; assay: DMBA-Induced Mammary Tumor Inhibition; type: in vivo, female Sprague-Dawley rats; conditions: 4 mg/kg daily subcutaneously, Test No. I
Method: Mammary tumors were produced in female Sprague-Dawley rats which were 50-60 days old by the gavage administration of 20 mg of 7,12-dimethylbenz[a]anthracene (DMBA). About six weeks after DMBA administration, the mammary glands were palpated at weekly intervals for the appearance of tumors. Whenever one or more tumors appeared and were measurable in an animal, that animal was selected for experimentation. […] Each control and test group contained 8 animals. The test compound was dissolved in corn oil and administered subcutaneously once daily. Every experiment included a group of control rats having tumors and were given corn oil vehicle subcutaneously. […] The area of each tumor was calculated by multiplying the shortest and longest diameters of the tumor. The treatment and measurement of animals continued for 3 weeks at which time the final areas of the tumors were determined. The change in the mean tumor area was determined, and the mean change was analyzed for its significance using Dunnett's t-test.

Row | EC50 (aromatase) [nM] | SMILES | Mean Tumor Area, Finish ([1]; after 3 weeks, statistically different from control, p < 0.05 (control 392.0)) [mm^2] | Mean Tumor Area, Start ([1]; start of test) [mm^2]
1 | 60 | Clc1ccc(C(Cn2ccnc2)OCc2ccsc2Cl)c(Cl)c1 (centres unmarked) [1-(2-[(2-chloro-3-thienyl)-methoxy]-2-[2,4-dichlorophenyl]-ethyl)-1H-imidazole] |  | 
2 | 490 | c1ccc(CCCn2ccnc2)cc1 [1-(3-phenylpropyl)imidazole] |  | 
3 | 630 | c1ccc(CCn2ccnc2)cc1 [1-(β-phenylethyl)imidazole] |  | 
4 | < 50 | O=[N+]([O-])c1ccc(CCn2ccnc2)cc1 [1-[2-(4-nitrophenyl)ethyl]-1H-imidazole] |  | 
5 | 1500 | COc1ccc(OC)c(C(O)Cn2ccnc2)c1 (stereo not drawn) [α-(2,5-dimethoxyphenyl)-1H-imidazole-1-ethanol nitrate] |  | 

Row | SMILES | EC50 (aromatase) [nM] | Mean Tumor Area, Finish ([1]; after 3 weeks, statistically different from control, p < 0.05 (control 392.0)) [mm^2] | Mean Tumor Area, Start ([1]; start of test) [mm^2]
6 | C=CCOC(Cn1ccnc1)c1ccc(Cl)cc1Cl (centres unmarked) [1-[2-(2,4-dichlorophenyl)-2-(2-propenyloxy)ethyl]-1H-imidazole] | 42 | 119.0 | 55.2

From patent US4766140A, “Method of inhibiting aromatase” (Eli Lilly and Company, priority 1984, dated 1988)
